# In patent US20140142150A1, “TREATING NEUROPSYCHIATRIC DISORDERS” (THE GENERAL HOSPITAL CORPORATION, priority 2011, published 2014):
# Tested on: stable schizophrenia patients
# Assay: placebo controlled add-on trial of once-weekly D-cycloserine, negative symptoms by modified SANS total score
# Format: in vivo, human
# Experimental: Study procedures were approved by the Partners HealthCare and Massachusetts Department of Mental Health institutional review boards, and all participants provided written informed consent. A diagnosis of schizophrenia was confirmed by a consensus diagnostic conference based on results from a clinical diagnostic interview, chart review, and review of clinical history with treating physicians.
# Subjects were administered the Positive and Negative Syndrome Scale (PANSS) (Kay et al., Schizophrenia Bulletin 13:261-276) to assess symptom severity by trained raters who were blind to genotype.
# DNA was obtained from blood samples and genotyped for variants across two genes: G72 and GCPII. Specific variants were selected on the basis of (1) common occurrence in the general population (minor allele frequency >0.2), (2) coding for non-synonymous mutations in amino acid sequences, and (3) previous support in the literature for an association with schizophrenia. No additional genetic variants were studied. Genotyping was conducted using the MASSARRAY® platform (Sequenom, San Diego, Calif.) using the nucleotide primers shown in Table 2.
# Negative symptoms were measured by the modified SANS total score at baseline and at week 8, seven days after the last dose of study drug. […] The sample was subsequently enlarged to 45 subjects and G72 genotype was examined as a predictor of response. G72 is the most-validated schizophrenia risk gene that influences activity at the glycine site of the NMDA receptor complex. One G72 SNP, rs3916971 (M21), that achieved significant association with schizophrenia risk in a meta-analysis performed by “SzGene” (Bertram, Schizophr Bull. 34:806-12, 2008) was examined. In the enlarged sample of 45 subjects, the effect size of D-cycloserine improvement of negative symptoms compared to placebo increased to 0.9 and G72 genotype produced a drug x genotype effect size of 0.7. Within subjects receiving D-cycloserine, G72 genotype predicted response with an effect size of 0.9 and within subjects with the TT genotype, the effect size of D-cycloserine improvement of negative symptoms vs. placebo was 2.3 (FIG. 1).
smiles,measurement,setting,value
N[C@@H]1CONC1=O [D-cycloserine],drug x genotype effect size (G72 rs3916971 genotype),enlarged sample of 45 subjects,0.7
same,effect size of improvement of negative symptoms compared to placebo,"enlarged sample of 45 subjects, once-weekly 50 mg",0.9
same,"improvement of negative symptoms (modified SANS total score), effect size","once-weekly 50 mg add-on to antipsychotics, 38 stable schizophrenia patients, baseline to week 8, vs placebo",0.7
same,patients exhibiting a 20% or greater improvement in SANS total score,"once-weekly 50 mg, 38 patients, week 8 (placebo group 11%)",30%
same,"G72 genotype prediction of response, effect size","within subjects receiving D-cycloserine, enlarged sample",0.9
same,effect size of improvement of negative symptoms vs. placebo,within subjects with the TT genotype at G72 rs3916971 (FIG. 1),2.3
